From patent US20250145665A1, “MACROCYCLIC PEPTIDES USEFUL AS MODULATORS OF TNF ALPHA” (Bristol-Myers Squibb Company, priority 2023, published 2025)
Starred links: 1 amine or outer side, 2 acyl side, 3 side chain; linkers in the order of their positions; H or OH if unused. Positions of bridges follow the written chain, without caps; N, C: chain ends. Non-standard residues stand in square brackets, D forms with d. Residues, ends and D or L forms follow the SMILES beside them. *: point of attachment. Bip(4'-NHCO-C6H4-3-CH2COOH) = N[C@@H](Cc1ccc(-c2ccc(NC(=O)c3cccc(CC(=O)O)c3)cc2)cc1)C(=O)O; Bip(4'-(3-HOOC-benzamido)) = N[C@@H](Cc1ccc(-c2ccc(NC(=O)c3cccc(C(=O)O)c3)cc2)cc1)C(=O)O; dArg(Nω-CH2C6H4-3-CH2Gua) = N=C(N)NCc1cccc(CNC(=N)NCCC[C@@H](N)C(=O)O)c1; Bip(4'-NHBz) = N[C@@H](Cc1ccc(-c2ccc(NC(=O)c3ccccc3)cc2)cc1)C(=O)O; Bip(4'-NH) = O=C([C@H](Cc1ccc(-c2ccc(N[*:3])cc2)cc1)N[*:1])[*:2]; dArg(ω-Bn(3-CH2OH)) = N=C(NCCC[C@@H](N)C(=O)O)NCc1cccc(CO)c1; Indazole3carbonyl(1-CH2COOH) = O=C(O)Cn1nc(C(=O)*)c2ccccc21; Bip(4'-NHAc) = CC(=O)Nc1ccc(-c2ccc(C[C@H](N)C(=O)O)cc2)cc1; X33 = N=C(NCCC[C@@H](N[*:1])C(=O)[*:2])NCc1cccc(CC(=O)O)c1; X53 = CC(C)(C)n1nnc(CNC(=N)NCCC[C@@H](N[*:1])C(=O)[*:2])n1; X87 = N=C(NCCC[C@@H](N[*:1])C(=O)[*:2])NCc1ccc(C(=O)O)cc1; X80 = N=C(NCCC[C@@H](N[*:1])C(=O)[*:2])NCc1ccc2c(c1)OCO2; X44 = N#Cc1ccc(CNC(=N)NCCC[C@@H](N[*:1])C(=O)[*:2])cc1; X7 = N=C(NCCC[C@@H](N[*:1])C(=O)[*:2])NCc1ccc2occc2c1; X26 = N=C(NCCC[C@@H](N[*:1])C(=O)[*:2])NCc1ccc(O)cc1; Ala(morpholin-4-yl) = N[C@@H](CN1CCOCC1)C(=O)O; Benzoyl(3-OCH2COOH) = O=C(O)COc1cccc(C(=O)*)c1; Bip = N[C@@H](Cc1ccc(-c2ccccc2)cc1)C(=O)O; Tiq1c(1S) = O=C(O)[C@H]1NCCc2ccccc21; Val(3-OH) = CC(C)(O)[C@H](N)C(=O)O; 2Pal = N[C@@H](Cc1ccccn1)C(=O)O; Tic = O=C(O)[C@@H]1Cc2ccccc2CN1; Cha = N[C@@H](CC1CCCCC1)C(=O)O; Chg = N[C@H](C(=O)O)C1CCCCC1; Sar = CNCC(=O)O

biological target: TNFα (Homo sapiens, UniProt P01375); test: TNF-Induced HEK-Blue Assay; assay type: cell-based; conditions: not given
Sequence (P01375 77-233 limits assumed): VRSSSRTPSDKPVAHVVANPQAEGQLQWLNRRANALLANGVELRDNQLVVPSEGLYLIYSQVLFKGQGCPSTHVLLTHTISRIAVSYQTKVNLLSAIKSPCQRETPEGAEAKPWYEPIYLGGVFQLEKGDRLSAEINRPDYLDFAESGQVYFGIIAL

Structure (SMILES) | IC50 [nM]
CC(C)C[C@@H]1NC(=O)[C@H](CCCNC(=N)N)NC(=O)[C@H](C(C)C)NC(=O)[C@@H]2CCCN2C(=O)[C@H](C(C)C)NC(=O)[C@@H](CCCNC(=N)NCc2ccc(C#N)cc2)NC(=O)[C@H](CC(=O)O)NC(=O)[C@@H]2CCCN2C(=O)CN(C)C(=O)[C@H](Cc2ccc(-c3ccc(NC(=O)c4nn(CC(=O)O)c5ccccc45)cc3)cc2)NC(=O)[C@H](Cc2ccc(-c3ccccc3)cc2)NC(=O)[C@H](CN2CCOCC2)NC(=O)CSC[C@@H](C(=O)NCC(N)=O)NC1=O [Example 506] ({CH2CO}-[Ala(morpholin-4-yl)][Bip][Bip(4'-NH)](Indazole3carbonyl(1-CH2COOH))[Sar]PD[X44]VPVRLCG-NH2; thioether N-13) | < 50
CC(C)C[C@@H]1NC(=O)[C@H](CCCNC(=N)N)NC(=O)[C@H](C(C)C)NC(=O)[C@@H]2CCCN2C(=O)[C@H](C(C)C)NC(=O)[C@@H](CCCNC(=N)NCc2ccc(C(=O)O)cc2)NC(=O)[C@H](CC(=O)O)NC(=O)[C@@H]2CCCN2C(=O)CN(C)C(=O)[C@H](Cc2ccc(-c3ccc(NC(=O)c4nn(CC(=O)O)c5ccccc45)cc3)cc2)NC(=O)[C@H](Cc2ccc(-c3ccccc3)cc2)NC(=O)[C@H](CN2CCOCC2)NC(=O)CSC[C@@H](C(=O)NCC(N)=O)NC1=O [Example 507] ({CH2CO}-[Ala(morpholin-4-yl)][Bip][Bip(4'-NH)](Indazole3carbonyl(1-CH2COOH))[Sar]PD[X87]VPVRLCG-NH2; thioether N-13) | < 50
CC(C)C[C@@H]1NC(=O)[C@H](CCCNC(=N)N)NC(=O)[C@H](C(C)C)NC(=O)[C@@H]2CCCN2C(=O)[C@H](C(C)C)NC(=O)[C@@H](CCCNC(=N)NCc2ccc(O)cc2)NC(=O)[C@H](CC(=O)O)NC(=O)[C@@H]2CCCN2C(=O)CN(C)C(=O)[C@H](Cc2ccc(-c3ccc(NC(=O)c4nn(CC(=O)O)c5ccccc45)cc3)cc2)NC(=O)[C@H](Cc2ccc(-c3ccccc3)cc2)NC(=O)[C@H](CN2CCOCC2)NC(=O)CSC[C@@H](C(=O)NCC(N)=O)NC1=O [Example 508] ({CH2CO}-[Ala(morpholin-4-yl)][Bip][Bip(4'-NH)](Indazole3carbonyl(1-CH2COOH))[Sar]PD[X26]VPVRLCG-NH2; thioether N-13) | < 50
CC(C)C[C@@H]1NC(=O)[C@H](CCCNC(=N)N)NC(=O)[C@H](C(C)C)NC(=O)[C@@H]2CCCN2C(=O)[C@H](C(C)C)NC(=O)[C@@H](CCCNC(=N)NCc2ccc3c(c2)OCO3)NC(=O)[C@H](CC(=O)O)NC(=O)[C@@H]2CCCN2C(=O)CN(C)C(=O)[C@H](Cc2ccc(-c3ccc(NC(=O)c4nn(CC(=O)O)c5ccccc45)cc3)cc2)NC(=O)[C@H](Cc2ccc(-c3ccccc3)cc2)NC(=O)[C@H](CN2CCOCC2)NC(=O)CSC[C@@H](C(=O)NCC(N)=O)NC1=O [Example 509] ({CH2CO}-[Ala(morpholin-4-yl)][Bip][Bip(4'-NH)](Indazole3carbonyl(1-CH2COOH))[Sar]PD[X80]VPVRLCG-NH2; thioether N-13) | < 50
CC(C)C[C@@H]1NC(=O)[C@H](CCCNC(=N)N)NC(=O)[C@H](C(C)C)NC(=O)[C@@H]2CCCN2C(=O)[C@H](C(C)C)NC(=O)[C@@H](CCCNC(=N)NCc2nnn(C(C)(C)C)n2)NC(=O)[C@H](CC(=O)O)NC(=O)[C@@H]2CCCN2C(=O)CN(C)C(=O)[C@H](Cc2ccc(-c3ccc(NC(=O)c4nn(CC(=O)O)c5ccccc45)cc3)cc2)NC(=O)[C@H](Cc2ccc(-c3ccccc3)cc2)NC(=O)[C@H](CN2CCOCC2)NC(=O)CSC[C@@H](C(=O)NCC(N)=O)NC1=O [Example 510] ({CH2CO}-[Ala(morpholin-4-yl)][Bip][Bip(4'-NH)](Indazole3carbonyl(1-CH2COOH))[Sar]PD[X53]VPVRLCG-NH2; thioether N-13) | < 50
CC(C)C[C@@H]1NC(=O)[C@H](CCCNC(=N)N)NC(=O)[C@H](C(C)C)NC(=O)[C@@H]2CCCN2C(=O)[C@H](C(C)C)NC(=O)[C@@H](CCCNC(=N)NCc2cccc(CC(=O)O)c2)NC(=O)[C@H](CC(=O)O)NC(=O)[C@@H]2CCCN2C(=O)CN(C)C(=O)[C@H](Cc2ccc(-c3ccc(NC(=O)c4nn(CC(=O)O)c5ccccc45)cc3)cc2)NC(=O)[C@H](Cc2ccc(-c3ccccc3)cc2)NC(=O)[C@H](CN2CCOCC2)NC(=O)CSC[C@@H](C(=O)NCC(N)=O)NC1=O [Example 511] ({CH2CO}-[Ala(morpholin-4-yl)][Bip][Bip(4'-NH)](Indazole3carbonyl(1-CH2COOH))[Sar]PD[X33]VPVRLCG-NH2; thioether N-13) | 50 to 200
CC(C)C[C@@H]1NC(=O)[C@H](CCCNC(=N)N)NC(=O)[C@H](C(C)C)NC(=O)[C@@H]2CCCN2C(=O)[C@H](C(C)C)NC(=O)[C@@H](CCCNC(=N)NCc2cccc(CNC(=N)N)c2)NC(=O)[C@H](CC(=O)O)NC(=O)[C@@H]2CCCN2C(=O)CN(C)C(=O)[C@H](Cc2ccc(-c3ccc(NC(=O)c4nn(CC(=O)O)c5ccccc45)cc3)cc2)NC(=O)[C@H](Cc2ccc(-c3ccccc3)cc2)NC(=O)[C@H](CN2CCOCC2)NC(=O)CSC[C@@H](C(=O)NCC(N)=O)NC1=O [Example 512] ({CH2CO}-[Ala(morpholin-4-yl)][Bip][Bip(4'-NH)](Indazole3carbonyl(1-CH2COOH))[Sar]PD[dArg(Nω-CH2C6H4-3-CH2Gua)]VPVRLCG-NH2; thioether N-13) | < 50
CC(C)C[C@@H]1NC(=O)[C@H](Cc2c[nH]cn2)NC(=O)[C@H](C2CCCCC2)NC(=O)[C@@H]2CCCN2C(=O)[C@H](C(C)C)NC(=O)[C@@H](CCCNC(=N)N)NC(=O)[C@H](CC(=O)O)NC(=O)[C@H](Cc2cnc[nH]2)NC(=O)CN(C)C(=O)[C@H](Cc2ccc(-c3ccc(NC(=O)c4ccccc4)cc3)cc2)NC(=O)[C@H](Cc2ccc(-c3ccccc3)cc2)NC(=O)[C@H](CC2CCCCC2)NC(=O)CSC[C@@H](C(=O)NCC(N)=O)NC1=O [Example 513] ({CH2CO}-[Cha][Bip][Bip(4'-NHBz)][Sar]HD[dR]VP[Chg]HLCG-NH2; thioether N-13) | < 50

same assay, conditions: HEK-Blue-CD40L cells, NF-kB-driven secreted alkaline phosphatase reporter; TNFα 0.5 ng/ml; 18 h; read-out: TNF induced HEK-Blue assay IC50 value

Structure (SMILES) | IC50 [nM]
CC[C@H](C)[C@@H]1NC(=O)[C@@H](CCCNC(=N)NCc2cccc(CO)c2)NC(=O)[C@H](CC(=O)O)NC(=O)[C@H](Cc2cnc[nH]2)NC(=O)CN(C)C(=O)[C@H](Cc2ccc(-c3ccc(NC(=O)c4cccc(CC(=O)O)c4)cc3)cc2)NC(=O)[C@H](Cc2ccc(-c3ccccc3)cc2)NC(=O)[C@H](CC2CCCCC2)NC(=O)CSC[C@@H](C(=O)NCC(N)=O)NC(=O)[C@H](CC(C)C)NC(=O)[C@H](Cc2c[nH]cn2)NC(=O)[C@H](C(C)C)NC(=O)[C@@H]2CCCN2C1=O [Example 504] ({CH2CO}-[Cha][Bip][Bip(4'-NHCO-C6H4-3-CH2COOH)][Sar]HD[dArg(ω-Bn(3-CH2OH))]IPVHLCG-NH2; thioether N-13) | < 50
CC[C@H](C)[C@@H]1NC(=O)[C@@H](CCCNC(=N)NCc2ccc3occc3c2)NC(=O)[C@H](CC(=O)O)NC(=O)[C@H](Cc2cnc[nH]2)NC(=O)CN(C)C(=O)[C@H](Cc2ccc(-c3ccc(NC(=O)c4cccc(CC(=O)O)c4)cc3)cc2)NC(=O)[C@H](Cc2ccc(-c3ccccc3)cc2)NC(=O)[C@H](CC2CCCCC2)NC(=O)CSC[C@@H](C(=O)NCC(N)=O)NC(=O)[C@H](CC(C)C)NC(=O)[C@H](Cc2c[nH]cn2)NC(=O)[C@H](C(C)C)NC(=O)[C@@H]2CCCN2C1=O [Example 505] ({CH2CO}-[Cha][Bip][Bip(4'-NHCO-C6H4-3-CH2COOH)][Sar]HD[X7]IPVHLCG-NH2; thioether N-13) | 50 to 200
CC(C)C[C@@H]1NC(=O)[C@H](Cc2c[nH]cn2)NC(=O)[C@H](C2CCCCC2)NC(=O)[C@@H]2CCCN2C(=O)[C@H](C(C)C)NC(=O)[C@@H](CCCNC(=N)N)NC(=O)[C@H](CC(=O)O)NC(=O)[C@H](Cc2cnc[nH]2)NC(=O)CN(C)C(=O)[C@H](Cc2ccc(-c3ccc(NC(=O)c4cccc(C(=O)O)c4)cc3)cc2)NC(=O)[C@H](Cc2ccc(-c3ccccc3)cc2)NC(=O)[C@H](CC2CCCCC2)NC(=O)CSC[C@@H](C(=O)NCC(N)=O)NC1=O [Example 514] ({CH2CO}-[Cha][Bip][Bip(4'-(3-HOOC-benzamido))][Sar]HD[dR]VP[Chg]HLCG-NH2; thioether N-13) | < 50
CC[C@H](C)[C@@H]1NC(=O)[C@@H](CCCNC(=N)N)NC(=O)[C@H](CC(=O)O)NC(=O)[C@H](Cc2cnc[nH]2)NC(=O)CN(C)C(=O)[C@H](Cc2ccc(-c3ccc(NC(=O)c4cccc(OCC(=O)O)c4)cc3)cc2)NC(=O)[C@H](Cc2ccc(-c3ccccc3)cc2)NC(=O)[C@H](CC2CCCCC2)NC(=O)CSC[C@@H](C(=O)NCC(N)=O)NC(=O)[C@H](CC(C)C)NC(=O)[C@H](Cc2c[nH]cn2)NC(=O)[C@H](C(C)C)NC(=O)[C@@H]2Cc3ccccc3CN2C1=O [Example 515] ({CH2CO}-[Cha][Bip][Bip(4'-NH)](Benzoyl(3-OCH2COOH))[Sar]HD[dR]I[Tic]VHLCG-NH2; thioether N-13) | < 50
CC[C@H](C)[C@@H]1NC(=O)[C@@H](CCCNC(=N)N)NC(=O)[C@H](CC(=O)O)NC(=O)[C@H](Cc2cnc[nH]2)NC(=O)CN(C)C(=O)[C@H](Cc2ccc(-c3ccc(NC(=O)c4cccc(OCC(=O)O)c4)cc3)cc2)NC(=O)[C@H](Cc2ccc(-c3ccccc3)cc2)NC(=O)[C@H](CC2CCCCC2)NC(=O)CSC[C@@H](C(=O)NCC(N)=O)NC(=O)[C@H](CC(C)C)NC(=O)[C@H](Cc2c[nH]cn2)NC(=O)[C@H](C(C)C)NC(=O)[C@@H]2c3ccccc3CCN2C1=O [Example 516] ({CH2CO}-[Cha][Bip][Bip(4'-NH)](Benzoyl(3-OCH2COOH))[Sar]HD[dR]I[Tiq1c(1S)]VHLCG-NH2; thioether N-13) | < 50
CC(=O)Nc1ccc(-c2ccc(C[C@@H]3NC(=O)[C@H](Cc4ccc(-c5ccccc5)cc4)NC(=O)[C@H](C(C)(C)O)NC(=O)CSC[C@@H](C(=O)NCC(N)=O)NC(=O)[C@H](CC(C)C)NC(=O)[C@H](Cc4cnc[nH]4)NC(=O)[C@H](C(C)C)NC(=O)[C@@H]4CCCN4C(=O)[C@H](C(C)C)NC(=O)[C@@H](CCCNC(=N)N)NC(=O)[C@H](CC(=O)O)NC(=O)[C@H](Cc4ccccn4)NC(=O)CN(C)C3=O)cc2)cc1 [Example 518] ({CH2CO}-[Val(3-OH)][Bip][Bip(4'-NHAc)][Sar][2Pal]D[dR]VPVHLCG-NH2; thioether N-13) | 50 to 200
